For orientation: CC50 means the concentration that lowers cell viability or growth by half.

Where a SMILES comes first, the peptide text is derived from it. [ ]: non-standard residue; d: D form. The star is where a group is joined. ξ: configuration not given here. Succinyl(4-O-cholesteryl) = CC(C)CCC[C@@H](C)[C@H]1CC[C@H]2[C@@H]3CC=C4C[C@@H](OC(=O)CCC(=O)*)CC[C@]4(C)[C@H]3CC[C@]12C; ξD = NC(CC(=O)O)C(=O)O

The values below come from patent US20260250325A1, “Antiviral Polypeptide Membrane Fusion Inhibitor, and Preparation Method and Application Thereof” (priority 2025, published 2026).

Series [1] is described as follows: Cytotoxicity test in HEp-2 cells (CCK8 cell viability). It is filed as cell-based. The following applies: human; HEp-2 cells, CCK8, 1 day; read-out: CC50. An outline of the steps:
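Compound dilutions (final DMSO 0.5%) were applied for 1 day to HEp-2 cells plated at 30,000 per well the day before. CCK8 signal gave survival relative to cell and medium controls, and a four-parameter log(inhibitor)-response fit yielded CC50.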

Series [2] relates to RSV A2 virus strain. The series can be described thus: Mouse RSV A2 challenge protection, lung viral titer by plaque method. It is filed as in vivo, BALB/c mice. Particulars: for Mean (PFU/g lung): BALB/c mice, tracheal nebulization 1 mg/kg QD for 5 days, lung collected 2 h after final administration on Day 4; for effect on viral titer in lung tissue (in words): mice, tracheal nebulization once daily for 5 days. The method, then: Female BALB/c mice were from Shanghai Yishang Biotechnology Co., Ltd. HEp- 2 were from the ATCC, with a catalog number CCL-23. The cells were cultured in a DMEM medium solution in which 10% (v/v) fetal bovine serum and 1% penicillin and streptomycin were added. The RSV A2 virus strain was from the ATCC, with a catalog number VR-1540.
Eight-week-old female BALB/c mice were grouped based on body weight (n=6). All animals were intranasally challenged with RSV on Day 0 at a challenge dosage of 1×10^6 pfu (20 μL) per animal. Administration began 1 h after Day 0 challenge; the polypeptide sample, positive control, and solvent control were administered via tracheal nebulization once daily for 5 consecutive days (see Table 3 below for administration dosage and administration frequency). Lung tissue was collected from all animals 2 h after the final administration on Day 4; left lung tissue was rapidly frozen in a virus protection solution with a 10-fold volume and stored below −70° C.; and a viral titer was detected by using a plaque method.
For analysis, the lung RSV A2 virus was determined by performing a tissue homogenate viral load plaque method. In short, on the day prior to sample detection, the HEp-2 cells were inoculated into a 12-well plate (spreading density being 0.3×10^6 cells/mL, with 1000 μL of cell suspension per well) according to a standard HEp-2 cell culture operation procedure. On the day of incubation, the supernatant was taken from the tissue sample that was homogenized using a tissue homogenizer (maintaining a low-temperature environment), and the supernatant was taken after centrifugation. The tissue homogenate sample was diluted with serum-free DMEM, and inoculated into a 12-well plate at a final volume of 400 μL. After 2 h of incubation, the homogenate supernatant was discarded, and 1.5 mL of a covering layer (cell culture medium containing 1% soft agar) was added to each well and cultured in the incubator for approximately 72 h. The covering layer was discarded, the cells were fixed, blocking was performed by using a blocking solution, dyeing was performed with HRP-RSVG, development and air drying were terminated with pure water. Colored spots on the well plate were counted by using a fluorescent (enzyme-linked) immunoassay spot analyzer, and the viral titer was expressed as a plaque-forming unit per gram of tissue (PFU/g). The viral titer was calculated as an arithmetic mean±standard error of all animals in a group.
One hour after RSV A2 challenge in mice, compounds 13, 14, 17, 19, 20, 21, 26, 27, 28, and 40 were administered via tracheal nebulization once daily for 5 consecutive days; and 2 h after the final administration, lung tissue was collected from all groups for viral plaque detection, and results were shown in Table 3.

The test system of series [3] is RSV A2 virus strain. The series can be described thus: Cotton rat RSV A2 challenge protection, lung nucleic acid load by RT-qPCR. It is filed as in vivo. Particulars: cotton rats; for Nucleic acid load RT-qPCR detection results Log10 mean (copy number/gram of lung tissue): tracheal nebulization 1 mg/kg QD for 5 days, lung collected 2 h after final administration on Day 4; for effect on viral titer in lung tissue (in words): tracheal nebulization once daily for 5 days. The text has this:
Female cotton rats were from Shanghai Yishang Biotechnology Co., Ltd. The RSV A2 virus strain was from the ATCC, with a catalog number VR-1540. RT-qPCR primer+probe primer were supplied by Qingke Biotechnology Co., Ltd, with batch number TSP20241227-025-00187. The RT-qPCR standard was provided by Vazyme, with batch number 20241008.
Female cotton rats (6-8 weeks old) were grouped based on body weight (n=5). All animals were intranasally challenged with RSV on Day 0 at a challenge dosage of […] pfu (50 μL) per animal. Administration began 1 h after Day 0 challenge; the polypeptide sample, positive control, and solvent control were administered via tracheal nebulization once daily for 5 consecutive days. Lung tissue was collected from all animals 2 h after the final administration on Day 4. Left lung tissue (including partial trachea) was rapidly frozen in a virus protection solution with a 10-fold volume and stored below −70° C.; and the viral titer was detected with RT-qPCR.
First, sample homogenization and lung tissue RNA extraction were performed, and the supernatant was taken from the tissue sample that was homogenized using a tissue homogenizer (maintaining a low-temperature environment). The approximately 100 μL of the homogenate supernatant was taken, and total tissue RNA was extracted by using a VeZol reagent-chloroform-water phase-magnetic bead method, and dissolved in RNase-free water. The RT-qPCR reaction system was prepared as follows: a one-step RT-qPCR reaction system was prepared by using an RNA template, a probe, a primer pair, an RT-qPCR buffer, and the RNase-free water; each sample was tested in duplicated wells, with each well containing 20 μL of the one-step RT-qPCR reaction system; a quantitative standard curve well (RSV A2 N gene full-length plasmid), a positive quality control well, and a negative quality control well were arranged at the same time. Then, amplification programs were set according to reverse transcription, pre-denaturation, and cyclic amplification, and amplification data was collected by using a real-time fluorescence quantification PCR instrument, and a mean CT value for duplicated wells was calculated. The CT value from the test results for each sample was substituted into a quantitative standard curve to calculate a copy number. A calculation formula for RSV viral load (copy number/gram of lung tissue) was: sample viral load (copy number/gram of lung tissue)=copy number/relative tissue input (g).
One hour after RSV A2 challenge in cotton rats, compounds 13, 14, 17, 19, 20, 21, 26, 27, 28, and 40 were administered via tracheal nebulization once daily for 5 consecutive days; and 2 h after the final administration, lung tissue was collected from all groups for viral titer detection, and results were shown in Table 4.

On to `CC[C@H](C)[C@H](NC(=O)[C@H](CCCCN)NC(=O)[C@H](CCCCN)NC(=O)[C@H](CC(C)C)NC(=O)[C@H](CO)NC(=O)[C@H](CCC(=O)O)NC(=O)[C@H](CCC(=O)O)NC(=O)[C@@H](NC(=O)[C@H](CCCCN)NC(=O)[C@H](CCCCN)NC(=O)[C@H](CC(N)=O)NC(=O)[C@@H](NC(=O)[C@H](CCC(=O)O)NC(=O)[C@H](CCC(=O)O)NC(=O)[C@@H](NC(=O)[C@H](CCCCN)NC(=O)[C@H](CCCCN)NC(=O)[C@H](CC(=O)O)NC(=O)[C@H](Cc1ccccc1)NC(=O)[C@H](CCC(=O)O)NC(=O)C(CC(=O)O)NC(C)=O)[C@@H](C)CC)C(C)C)[C@@H](C)CC)C(=O)N[C@@H](CCC(=O)O)C(=O)N[C@@H](CCC(=O)O)C(=O)N[C@@H](CO)C(=O)N[C@@H](CC(=O)O)C(=O)N[C@@H](CCCCN)C(=O)N[C@@H](CCCCN)C(=O)N[C@@H](CC(C)C)C(=O)N[C@@H](CCC(=O)O)C(=O)N[C@@H](C)C(=O)N[C@@H](C)C(=O)N[C@@H](C)C(=O)N[C@@H](CCCCN)C(=O)N[C@@H](CCCCNC(=O)CCC(=O)O[C@H]1CC[C@@]2(C)C(=CC[C@H]3[C@@H]4CC[C@H]([C@H](C)CCCC(C)C)[C@@]4(C)CC[C@@H]32)C1)C(N)=O` (stereo partly shown) [Compound 17] (Ac-[ξD]EFDKKIEEVNKKIEESLKKIEESDKKLEAAAKK(Succinyl(4-O-cholesteryl))-NH2), for which the CC50 at 1 day in series [1] was 26.4 µM. Also, in the series on RSV A2 virus strain [2], the “Mean (PFU/g lung)” value is listed as 7885 PFU/g lung and the “effect on viral titer in lung tissue (in words)” value (“effect on viral titer” below) is given as “significantly reduce the viral titer in lung tissue”. Moreover, in the series on RSV A2 virus strain [3], the “Nucleic acid load RT-qPCR detection results Log10 mean (copy number/gram of lung tissue)” value is listed as 8.42 Log10 copy number/gram of lung and the “effect on viral titer” value was “significantly reduce the viral titer in lung tissue”.
Take `CC[C@H](C)[C@H](NC(=O)[C@H](CCCCN)NC(=O)[C@H](CCCCN)NC(=O)[C@H](CC(C)C)NC(=O)[C@H](CO)NC(=O)[C@H](CCC(=O)O)NC(=O)[C@H](CCC(=O)O)NC(=O)[C@@H](NC(=O)[C@H](CCCCN)NC(=O)[C@H](CCCCN)NC(=O)[C@H](CC(N)=O)NC(=O)[C@@H](NC(=O)[C@H](CCC(=O)O)NC(=O)[C@H](CCC(=O)O)NC(=O)[C@@H](NC(=O)[C@H](CCCCN)NC(=O)[C@H](CCCCN)NC(=O)[C@H](CC(=O)O)NC(=O)[C@H](Cc1ccccc1)NC(=O)[C@H](CCC(=O)O)NC(=O)C(CC(=O)O)NC(C)=O)[C@@H](C)CC)C(C)C)[C@@H](C)CC)C(=O)N[C@@H](CCC(=O)O)C(=O)N[C@@H](CCC(=O)O)C(=O)N[C@@H](CO)C(=O)N[C@@H](CC(=O)O)C(=O)N[C@@H](CCCCN)C(=O)N[C@@H](CCCCN)C(=O)N[C@@H](CC(C)C)C(=O)N[C@@H](CCC(=O)O)C(=O)N[C@@H](CCC(=O)O)C(=O)N[C@H](C(=O)N[C@@H](CC(N)=O)C(=O)N[C@@H](CCC(=O)O)C(=O)N[C@@H](C)C(=O)N[C@@H](C)C(=O)N[C@@H](C)C(=O)N[C@@H](CCCCN)C(=O)N[C@@H](CCCCNC(=O)CCC(=O)O[C@H]1CC[C@@]2(C)C(=CC[C@H]3[C@@H]4CC[C@H]([C@H](C)CCCC(C)C)[C@@]4(C)CC[C@@H]32)C1)C(N)=O)C(C)C` (stereo partly shown) [Compound 14] (Ac-[ξD]EFDKKIEEVNKKIEESLKKIEESDKKLEEVNEAAAKK(Succinyl(4-O-cholesteryl))-NH2): the CC50 at 1 day in series [1] stood at 9.6 µM. In addition, in the series on RSV A2 virus strain [2], the “Mean (PFU/g lung)” value amounted to 4820 PFU/g lung and the “effect on viral titer” value is “significantly reduce the viral titer in lung tissue”. In the series on RSV A2 virus strain [3], the “Nucleic acid load RT-qPCR detection results Log10 mean (copy number/gram of lung tissue)” value is 7.68 Log10 copy number/gram of lung and the “effect on viral titer” value is reported as “significantly reduce the viral titer in lung tissue”.
